Read-outs that look alike come from different tables or passages of the source.
What was measured:
[1] = system: IL-4 stimulated expression of CD23 in human Ramos B cells (JAK-1 and JAK-3); assay: Assay for Ramos B-Cell Line Stimulated with IL-4 (CD23 upregulation, FACS); type: cell-based; details: read-out: IC50, Example 41
How it was run: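 Human Ramos B cells (5×10^4 per point, RPMI 5% serum) pre-incubated 1 h at 37 °C with compound or DMSO, then stimulated with IL-4 at 50 units/mL final for 20-24 h. CD23 upregulation measured by anti-CD23-PE staining and flow cytometry; IC50 derived.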

[2] = system: up-regulation of ICAM-1 (CD54) by IFNγ in U937 human monocytic cells; assay: U937 IFNγ ICAM1 FACS Assay; type: cell-based; details: U937 cells stimulated with IFNγ; ICAM-1 expression by FACS; read-out: IC50, Example 44
How it was run: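 U937 cells in 10% FCS RPMI were preincubated 30 min at 37 °C with an 8-point, 3-fold compound dilution series in duplicate, then stimulated with IFNγ for 18–24 h. Surface ICAM-1 was stained with APC anti-ICAM-1 and read by flow cytometry as geometric mean on live-gated cells. EC50 was derived.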

[3] = Ramos B-cell line stimulated with IL-4, CD23 expression by FACS
[4] = Ramos B cells stimulated with IL-4, CD23 expression by FACS

Compound | IC50 [1, 3] [nM] | IC50 [2] [nM] | IC50 [1, 4] [nM]
CC(C)(Oc1ccc(Nc2nc(Nc3cccc(S(N)(=O)=O)c3)ncc2F)cc1)C(N)=O [Compound I-126, N4-[4-(1-Aminocarbonyl-1-methyl)ethoxy]phenyl-N2-(3-aminosulfonyl)phenyl-5-fluoro-2,4-pyrimidinediamine] | 355 | 7200 | 
N#CCOc1ccc(Nc2nc(Nc3cccc(S(N)(=O)=O)c3)ncc2F)cc1F [Compound I-12, N2-(3-Aminosulfonylphenyl)-5-fluoro-N4-(4-cyanomethyleneoxy-3-fluorophenyl)-2,4-pyrimidinediamine] | 36.9 | 222 | 
Cc1ccc(Nc2ncc(F)c(Nc3ccc4c(c3)c(CC#N)cn4C)n2)cc1S(N)(=O)=O [IX-20] |  | 2900 | 122
Cc1ccc(Nc2ncc(F)c(Nc3ccc(OCC#N)c(F)c3)n2)cc1S(N)(=O)=O [Compound I-11, N2-(3-Aminosulfonyl-4-methylphenyl)-5-fluoro-N4-(4-cyanomethyleneoxy-3-fluorophenyl)-2,4-pyrimidinediamine] | 23.3 | 329 | 
N#CCOc1ccc(Nc2nc(Nc3cccc(S(N)(=O)=O)c3)ncc2Br)cc1 [Compound I-13, N2-(3-Aminosulfonylphenyl)-5-bromo-N4-(4-cyanomethyleneoxyphenyl)-2,4-pyrimidinediamine] | 6.27 | 43.5 | 
Cc1ccc(Nc2ncc(F)c(Nc3cc(C)c(OC(C)C(N)=O)c(C)c3)n2)cc1S(N)(=O)=O (racemic) [Compound I-124, Racemic N4-[4-(1-Aminocarbonyl)ethoxy-3,5-dimethyl]phenyl-N2-(3-aminosulfonyl-4-methyl)phenyl-5-fluoro-2,4-pyrimidinediamine] | 102 | 1330 | 
Cc1ccc(Nc2ncc(F)c(Nc3ccc(OC(C)C(N)=O)cc3)n2)cc1S(N)(=O)=O (centres unmarked) [Compound I-118, N4-[4-(1-Aminocarbonyl)ethoxy]phenyl-N2-(3-aminosulfonyl-4-methyl)phenyl-5-fluoro-2,4-pyrimidinediamine] | 292 | 2430 | 
Cc1cc(Nc2nc(Nc3cccc(S(N)(=O)=O)c3)ncc2F)ccc1OC(C)C(N)=O (racemic) [Compound I-120, Racemic N4-[4-(1-Aminocarbonyl)ethoxy-3-methyl]phenyl-N2-(3-aminosulfonyl)phenyl-5-fluoro-2,4-pyrimidinediamine] | 201 | 4460 | 
CNS(=O)(=O)c1cc(Nc2ncc(F)c(Nc3cccc(OCc4cccnc4)c3)n2)ccc1C [Compound I-184, 5-Fluoro-N2-[3-(N-methylaminosulfony)-4-methylphenyl]-5-fluoro-N4-[3-(3-pyridinyl)methyleneoxyphenyl]-2,4-pyrimidinediamine] | 486 | 6620 | 
Cc1cc(Nc2nc(Nc3ccc(S(N)(=O)=O)cc3)ncc2F)ccc1OC(C)C(N)=O (racemic) [Compound I-119, Racemic N4-[4-(1-Aminocarbonyl)ethoxy-3-methyl]phenyl-N2-(4-aminosulfonyl)phenyl-5-fluoro-2,4-pyrimidinediamine] | 211 | 11900 | 
CN1CCN(c2ccc(Nc3ncc(F)c(Nc4ccc(OCC#N)cc4)n3)cc2S(N)(=O)=O)CC1 [Compound I-9, N2-[3-Aminosulfonyl-4-(4-methylpiperazin-1-yl)phenyl]-5-fluoro-N4-(4-cyanomethyleneoxyphenyl)-2,4-pyrimidinediamine] | 233 | 787 | 
N2-(3-Aminosulfonyl-4-methylphenyl)-5-fluoro-N4-[4-(2-pyridinyl)-3-fluoromethyleneoxyphenyl]-2,4-pyrimidinediamine [Compound I-172] | 47.3 | 1100 | 
Cc1cc(COc2cccc(Nc3nc(Nc4ccc(C)c(S(N)(=O)=O)c4)ncc3F)c2)no1 [Compound I-214] | 144 | 1300 | 
Cc1cc(Nc2nc(Nc3ccc(C)c(S(N)(=O)=O)c3)ncc2F)ccc1OC(C)C(N)=O (racemic) [Compound I-121, Racemic N4-[4-(1-Aminocarbonyl)ethoxy-3-methyl]phenyl-N2-(3-aminosulfonyl-4-methyl)phenyl-5-fluoro-2,4-pyrimidinediamine] | 184 | 2990 | 
Cc1cc(Nc2nc(Nc3cccc(S(N)(=O)=O)c3)ncc2F)cc(C)c1OC(C)C(N)=O (racemic) [Compound I-123, Racemic N4-[4-(1-Aminocarbonyl)ethoxy-3,5-dimethyl]phenyl-N2-(3-aminosulfonyl)phenyl-5-fluoro-2,4-pyrimidinediamine] | 159 | 2220 | 

Now from value to compound:

IC50 [1, 3] [nM] | IC50 [2] [nM] | IC50 [1, 4] [nM] | Compound
 | 3370 | 118 | Cc1ccc(Nc2ncc(F)c(Nc3ccc4[nH]cc(CC#N)c4c3)n2)cc1S(=O)(=O)NC1CCN(C)CC1 [IX-19, N4-(3-cyanomethylene-1H-indol-5yl)-5-fluoro-N2-[3-(1-methyl-4-aminopiperadine)sulfonyl-4-methylphenyl]-2,4-pyrimidinediamine]
 | 543 | 46.4 | Cc1ccc(Nc2ncc(F)c(Nc3ccc4c(ccn4CC#N)c3)n2)cc1S(N)(=O)=O [IX-8, N2-(3-Aminosulfonyl-4-methylphenyl)-N4-(1-cyanomethyleneindol-5-yl)-5-fluoro-2,4-pyrimidinediamine]
 | 9260 | 545 | Cc1ccc(Nc2ncc(F)c(Nc3ccc4c(c3)CC(C(=O)N(C)C)O4)n2)cc1S(N)(=O)=O (racemic) [VII-26, Racemic N2-(3-Aminosulfonyl-4-methylphenyl)-N4-[2-(N,N-dimethylaminocarbonyl)-2,3-dihydrobenzofuran-5-yl]-5-fluoro-2,4-pyrimidinediamine]
 | 10100 | 153 | COc1ccc(Nc2nc(Nc3cc(C)c4c(c3)S(=O)(=O)NC=N4)ncc2F)cc1Cl [VIII-3, N4-(3-Chloro-4-methoxyphenyl)-5-fluoro-N2-(5-methyl-2H-1,1-dioxo-1,2,4-benzothiadiazin-7-yl)-2,4-pyrimidinediamine]
 | 596 | 129 | COCCn1ncc2cc(Nc3nc(Nc4cccc(S(N)(=O)=O)c4)ncc3F)ccc21 [VII-23, N2-(3-Aminosulfonylphenyl)-5-fluoro-N4-[1-(2-methoxyethyl)indazolin-5-yl]-2,4-pyrimidinediamine]
 | 1930 | 185 | N2-(3-Aminosulphonylphenyl)-5-fluoro-N4-[4-(3-pyridinylmethyl)benzo[1,4]oxazin-7-yl]-2,4-pyrimidinediamine [VII-56]
 | 6960 | 353 | CNC(=O)N1CCc2ccc(Nc3nc(Nc4ccc(C)c(S(N)(=O)=O)c4)ncc3F)cc2C1 [VII-17, N2-(3-Aminosulfonyl-4-methylphenyl)-5-fluoro-N4-[2-(methylaminocarbonyl)-1,2,3,4-tetrahydroisoquin-7-yl]-2,4-pyrimidinediamine]
 | 4730 | 109 | N#CCn1ccc2cc(Nc3nc(Nc4ccc(Cl)c(S(N)(=O)=O)c4)ncc3F)ccc21 [IX-7, N2-(3-Aminosulfonyl-4-chlorophenyl)-N4-(1-cyanomethyleneindol-5-yl)-5-fluoro-2,4-pyrimidinediamine]
 | 45500 | 669 | CN1C(=O)C(C)(C)Oc2cc(Nc3nc(Nc4cccc(S(N)(=O)=O)c4)ncc3F)cnc21 [VII-42, N2-(3-Aminosulfonylphenyl)-N4-[2,2,4-trimethyl-3-oxo-5-pyrid[1,4]oxazin-7-yl]-5-fluoro-2,4-pyrimidinediamine]
 | 6030 | 233 | CS(=O)(=O)N1CCc2cc(Nc3nc(Nc4ccc(S(N)(=O)=O)cc4)ncc3F)ccc21 [VII-63]
 | 8550 | 178 | N4-(3-Chloro-4-cyanomethyleneoxyphenyl)-5-fluoro-N2-(5-methyl-2H-1,1-dioxide-1,2,4-benzothiadiazin-7-yl)-2,4-pyrimidinediamine [VIII-2]
 | 1090 | 29.4 | N#CCN1C(=O)CSc2ccc(Nc3nc(Nc4cccc(S(N)(=O)=O)c4)ncc3F)cc21 [VII-36, N2-(3-Aminosulphonylphenyl)-5-fluoro-N4-(3-oxo-4-cyanomethyl-benzo[1,4]thiazin-6-yl)-2,4-pyrimidinediamine]
 | 1290 | 227 | Cc1ccc(Nc2ncc(F)c(Nc3ccc4c(c3)CN(C(=O)N(C)C)CC4)n2)cc1S(N)(=O)=O [VII-18, N2-(3-Aminosulfonyl-4-methylphenyl)-5-fluoro-N4-[2-(dimethylaminocarbonyl)-1,2,3,4-tetrahydroisoquin-7-yl]-2,4-pyrimidinediamine]

— patent US11827628B2, “Compositions and methods for inhibition of the JAK pathway” (Rigel Pharmaceuticals, Inc., priority 2005, dated 2023)
